# In US6943191B1, “Disubstituted lavendustin A analogs and pharmaceutical composition comprising the analogs” (The United States of America as represented by the …, priority 1998, dated 2005):
# Where two headings read alike, the source gives them in different places.
# What was measured:
# [1] = tested on: minimum of 12 human cancer cell lines; test: Hollow fiber assay in mice, point score; assay type: in vivo; conditions: for Hollow Fiber Assay IP score: first number of cell; for Hollow Fiber Assay SC score: second number of cell
# Protocol: Compounds satisfying Formulas 1 and 2 also have been tested for in vivo activity in the hollow fiber assay. See Example 12 below for the procedure used for the in vivo tests. Each compound tested was tested against a minimum of 12 human cancer cell lines. Data is reported as % T/C (i.e., the […]) for each of the 2 compound doses against each of the cell lines with separate values calculated for the intraperitoneal and subcutaneous samples, with a target value for % T/C being about 50 or less.
# Compounds were selected for further in vivo testing in standard subcutaneous xenograft models on the basis of several hollow fiber assay criteria. These criteria include: (1) a % T/C of 50 or less in 10 of the 48 possible test combinations (12 cell lines×2 sites×2 compound doses); (2) activity at a distance (intrapentoneal drug/subcutaneous culture) in a minimum of 4 of the 24 possible combinations; and/or (3) a net cell kill of 1 or more cell lines in either implant site. To simplify evaluation, a point system has been adopted which allows rapid assessment of a compound's activity. A value of 2 is assigned for each compound dose which results in a 50% or greater reduction in viable cell mass. The intraperitoneal and subcutaneous samples were scored separately so that criteria (1) and (2) could be evaluated. Compounds with a combined IP+SC score≧20, an SC score≧8, or a net cell kill of one or more cell lines were referred for xenograft testing. These criteria have been statistically validated by comparing the activity outcomes of greater than 80 randomly selected compounds in the hollow fiber assay and in the xenograft testing.
# This example describes the method used for in vivo testing of mice. Human cancer cells were cultivated in polyvinylidene fluoride (PVDF) hollow fibers. A sample of each cancer cell line was implanted intraperitoneally and subcutaneously in mice. Each mouse received a total of 6 fibers, 3 intraperitoneally and 3 subcutaneously, representing 3 distinct cancer cell lines. Three mice were treated with compounds made according to the present invention at each of two test doses intraperitoneally using a QD×4 treatment schedule. Vehicle controls consisted of 6 mice receiving the compound diluent only The fiber cultures were collected on the day following the last treatment. Anticancer effects were assessed by determining viable cell mass for each of the coil line using a formazan dye (MTT) conversion assay. From this, the % TIC was calculated using the average optical density of the compound-treated samples divided by the average optical density of the vehicle controls. In addition, the net increase in cell mass was determined for each sample as samples of fiber cultures were assessed for viable cell mass on the day of implantation into mice. This allowed cytostatic and cytocidal capacities of these compounds to be assessed.
# K562 cells = test: K562 cell culture and growth assay, 6 day MTT; assay type: cell-based, human; conditions: K562, 6 days
# Protocol: This example describes the procedure used for cell culture and growth assays. Human leukemia, Philadelphia-chromosome-positive CML cell line K562 was obtained from ATCC (Rockville, Md.). Cells were cultured in RPMI medium containing 10% fetal calf serum, 2 mM glutamine, 100 units/ml of penicillin and 100 μg/ml streptomycin Cells (2×10^3 cells/well) were incubated with increasing concentrations of compounds of the present invention dissolved in DMSO in a final volume of 200 μl in 96-well plates. Control cells were incubated with medium containing identical concentrations of the DMSO solvent. Growth of K562 cells was quantitated after 6 days by ability of living cells to reduce the yellow dye 3-(4,5-dimethylthiazolyl)-2,5-diphenyltetrazolium bromide (MTT) to a blue formazan product. Further information concerning this procedure is provided by Mossman T., “Rapid Colorimetric Assay for Cellular Growth and Survival—Application to Proliferation and Cytotoxicity Assays,” J. Immunol. Methods 1983, 65:55-63, which is incorporated herein by reference.
# [2] = tested on: panel of approximately 60 different human tumor cell lines; test: National Cancer Institute drug screen, mean-graph parameters; assay type: cell-based; conditions: mean over cell line panel, two days exposure; for GI50: Homo sapiens, 48 h, read-out: Tumor cell Mean log GI50 (converted)
# Protocol: Compounds of the present invention also have been subjected to the drug screening procedure employed by the National Cancer Institute for the screening of drugs having possible anticancer utility. The screening procedure uses a diverse, disease-oriented panel consisting of approximately 60 different human tumor cell lines organized into disease-specific subpanels. The compounds of the present invention were tested over a range of concentrations for cytotoxic or growth-inhibitory effects against cell lines comprising the panel. The eight subpanels represented diverse histologies (leukemias, melanomas, and tumors of the lung, colon, kidney, breast, ovary, and brain).
# Compounds of the present invention were tested over a period of two days. During this period the cells were continuously exposed to various concentrations of the compounds tested. The tests produced individual dose-responses, one for each cell line (i.e. one for each example), and the data were represented in dose-response curves. The data provided by these dose response curves were summarized using a mean-graph format.
# To produce data for the mean-graph format, a compound concentration that produced a target level response was calculated for each cell line. Three different response parameters were evaluated. The first response parameter was the growth inhibition (“GI50”). GI50 is the concentration of compounds made according to the present invention that produced an apparent 50% decrease in the number of tumor cells relative to the appropriate control (not exposed to the compounds of the present invention) at the end of the incubation period.
# The second response parameter was the total growth inhibition (“TGI”). TGI is the concentration at which the number of tumor cells remaining at the end of the incubation period substantially equal the number of tumor cells existing at the start of the incubation period.
# The third response parameter was the lethal concentration (“LC50”) LC50 is the concentration of compounds made according to the present invention that caused an apparent 50 percent reduction in the number of tumor cells […] at the start of the incubation period.
# In a typical GI50 mean graph, the relative position of the vertical reference line along the horizontal concentration axis was obtained by averaging the negative log10GI50 values for all the cell lines tested against the compound. Horizontal bars were then plotted for the individual negative log10GI50 values of each cell line relative to the vertical reference line. The GI50 graph thus provided a characteristic fingerprint for the compound, displaying the individual cell lines that are proportionately more sensitive than average (bars extending to the right of the reference line) or proportionately less sensitive than average (bars extending to the left of the reference line). The length of a bar was proportional to the difference between the log10GI50 value obtained with the particular cell line and the mean (represented by the vertical reference line).
# Similar mean graphs were prepared for the TGI and LC50 response parameters.
# p210^bcr-abl = molecular target: T1, p210^bcr-abl (Homo sapiens, UniProt P00519); test: Inhibition of in vitro auto-phosphorylation of p210^bcr-abl, immune-complex kinase assay; assay type: biochemical; conditions: Table 4; for IC50: read-out: IC50 (p210^ber-abi in vitro phosphorylation)
# T1 construct: immune complexes containing ^32P-labeled p210^bcr-abl were collected on protein Sepharose beads; BCR (N-terminal part of the breakpoint cluster region protein, natural fusion partner); endogenous in cells; host or cells: K562 cells (lysate, immunoprecipitated on Protein A-Sepharose); the other entry of the earlier key: BCR (P11274, Breakpoint cluster region protein)
# Protocol: Inhibition of in vitro auto-phosphorylation of p210^bcr-abl in immune-complex kinase assays were conducted as follows. K562 cell line cells were washed twice in […]. The washed cells were lysed in PLC lysis buffer 150 mM HEPES (pH 7.5), 150 mM NaCl, 10% (v/v) glycerol, 1% (v/v) Triton X-100, 1.5 mM MgCl2, 1 mM EGTA. 10 μg/ml leupeptin, 10 μg/ml aprotinin, 1 mM sodium orthovanadate. 10 mM sodium pyrophosphate, 100 mM sodium fluoride and 1 mM phenylmethyl sulfonyl fluoride| Cell lysates were centrifuged at 100,000 g for 15 minutes and the supernatant collected. Protein concentrations of the clarified supernatants were determined by the Bradford Protein Assay, and the same quantity of protein was immunoprecipitated from control (vehicle-treated) and drug-treated cells. Cell lysates were incubated and gently rocked at 4° C. for 4 hours overnight with antibodies. Immune complexes were collected by incubation with Protein A-Sepharose beads (Pharmacia, Piscataway N.J.) and immune complexes (beads) were washed three times with HNTG buffer [20 mM HEPES (pH 7.5), 10% glycerol, 0.1% Triton X-100, 150 mM NaCl and 1 mM sodium orthovanadate] to remove unbound material. Bound proteins were boiled for 5 minutes in 2×SDS sample buffer (63 mM Tris-HCl, ph 6.8; 10% glycerol; 2% SDS; 0.0025% bromophenol blue: and […] 2 mercaptoethanol) prior to SDS-PAGE. Proteins were resolved on 4-20% gradient mini gels from Novex Experimental Technology (San Diego, Calif.).
# After SDS-PAGE, proteins were electrophoretically transferred onto Immobilon polyvinylidene difluoride (PVDF) membranes (Millipore, Bedford, Mass.) at 250 mA for 4 hours at 4° C. using 2× Tris glycine transfer buffer (50 mM Tris, glycine), 20% methanol and 0.1% SDS. Residual binding sites on the membrane were blocked by incubation in TTS (20 mM Tris pH 7.4, 0.9% NaCl and 0.05% Tween 20) containing 3% BSA overnight at 4° C. or for 4 hours at room temperature. Blots were incubated for 1-1.5 hours with TTS containing 0.3% BSA with 1 μg/ml of mouse anti-P-Tyr, 2 μg/ml of mouse anti-Grb2 or 1 μg/ml of rabbit anti-She antibody. Blots were washed three times for 6 minutes each with TTS containing 0.3% BSA and probed with a 1:1000 dilution of rabbit anti-mouse antibody or directly with [^125I]Protein A (Amersham, Arlington Heights, Ill.) in blocking solutions. Proteins were visualized by autoradiography (exposed for 1-2 days at −70° C.).
# The p210^bcr-abl, protein immunoprecipitates were washed twice with HTNG buffer Immunoprecipitates were washed once with 50 mM Tris (pH 7.0) and distributed to each reaction in 20 μl of 20 mM PIPES [piperazine-N,N′-bis(ethanesulfonic acid)] (pH 7.0)−20 mM MnCl2. Then, 10 μl of compounds made according to the present invention at desired concentrations from working stock solution prepared in 20 mM PIPEs (pH 7.0)−20 mM MnCl2 were added to each reaction tube. Reactions were initiated with the addition of 10 μl of [γ-^33P]ATP (10 μCi per sample, 3000 Ci/mmol; Amersham), incubated for 20 minutes at 30° C., stopped by addition of 10 μl of 5×SDS sample buffer, heated at 100° C. for 5 minutes, and analyzed on 4-20% SDS-PAGE and by autoradiography.
# To assess the effect of drugs added in vitro on the state of p210^bcr-abl in the immune complexes, K562 cells were labeled with ^32P, lysed in PLC buffer and immune complexes containing ^32P-labeled p210^bcr-abl were collected on protein Sepharose beads and beads were washed four times with HNTG buffer. Immune complexes were divided into several tubes in 30 μl of PLC buffer in the presence of compounds made as described herein.
# [3] = Homo sapiens, 144 h, Table 9, mean ± S.E., 4 or more experiments, read-out: IC50 (μM) 6dMTT
# [4] = Homo sapiens, 144 h, Table 4, read-out: IC50 (6d MTT)
# T1 sequence (P00519 with tags, fused parts or gaps): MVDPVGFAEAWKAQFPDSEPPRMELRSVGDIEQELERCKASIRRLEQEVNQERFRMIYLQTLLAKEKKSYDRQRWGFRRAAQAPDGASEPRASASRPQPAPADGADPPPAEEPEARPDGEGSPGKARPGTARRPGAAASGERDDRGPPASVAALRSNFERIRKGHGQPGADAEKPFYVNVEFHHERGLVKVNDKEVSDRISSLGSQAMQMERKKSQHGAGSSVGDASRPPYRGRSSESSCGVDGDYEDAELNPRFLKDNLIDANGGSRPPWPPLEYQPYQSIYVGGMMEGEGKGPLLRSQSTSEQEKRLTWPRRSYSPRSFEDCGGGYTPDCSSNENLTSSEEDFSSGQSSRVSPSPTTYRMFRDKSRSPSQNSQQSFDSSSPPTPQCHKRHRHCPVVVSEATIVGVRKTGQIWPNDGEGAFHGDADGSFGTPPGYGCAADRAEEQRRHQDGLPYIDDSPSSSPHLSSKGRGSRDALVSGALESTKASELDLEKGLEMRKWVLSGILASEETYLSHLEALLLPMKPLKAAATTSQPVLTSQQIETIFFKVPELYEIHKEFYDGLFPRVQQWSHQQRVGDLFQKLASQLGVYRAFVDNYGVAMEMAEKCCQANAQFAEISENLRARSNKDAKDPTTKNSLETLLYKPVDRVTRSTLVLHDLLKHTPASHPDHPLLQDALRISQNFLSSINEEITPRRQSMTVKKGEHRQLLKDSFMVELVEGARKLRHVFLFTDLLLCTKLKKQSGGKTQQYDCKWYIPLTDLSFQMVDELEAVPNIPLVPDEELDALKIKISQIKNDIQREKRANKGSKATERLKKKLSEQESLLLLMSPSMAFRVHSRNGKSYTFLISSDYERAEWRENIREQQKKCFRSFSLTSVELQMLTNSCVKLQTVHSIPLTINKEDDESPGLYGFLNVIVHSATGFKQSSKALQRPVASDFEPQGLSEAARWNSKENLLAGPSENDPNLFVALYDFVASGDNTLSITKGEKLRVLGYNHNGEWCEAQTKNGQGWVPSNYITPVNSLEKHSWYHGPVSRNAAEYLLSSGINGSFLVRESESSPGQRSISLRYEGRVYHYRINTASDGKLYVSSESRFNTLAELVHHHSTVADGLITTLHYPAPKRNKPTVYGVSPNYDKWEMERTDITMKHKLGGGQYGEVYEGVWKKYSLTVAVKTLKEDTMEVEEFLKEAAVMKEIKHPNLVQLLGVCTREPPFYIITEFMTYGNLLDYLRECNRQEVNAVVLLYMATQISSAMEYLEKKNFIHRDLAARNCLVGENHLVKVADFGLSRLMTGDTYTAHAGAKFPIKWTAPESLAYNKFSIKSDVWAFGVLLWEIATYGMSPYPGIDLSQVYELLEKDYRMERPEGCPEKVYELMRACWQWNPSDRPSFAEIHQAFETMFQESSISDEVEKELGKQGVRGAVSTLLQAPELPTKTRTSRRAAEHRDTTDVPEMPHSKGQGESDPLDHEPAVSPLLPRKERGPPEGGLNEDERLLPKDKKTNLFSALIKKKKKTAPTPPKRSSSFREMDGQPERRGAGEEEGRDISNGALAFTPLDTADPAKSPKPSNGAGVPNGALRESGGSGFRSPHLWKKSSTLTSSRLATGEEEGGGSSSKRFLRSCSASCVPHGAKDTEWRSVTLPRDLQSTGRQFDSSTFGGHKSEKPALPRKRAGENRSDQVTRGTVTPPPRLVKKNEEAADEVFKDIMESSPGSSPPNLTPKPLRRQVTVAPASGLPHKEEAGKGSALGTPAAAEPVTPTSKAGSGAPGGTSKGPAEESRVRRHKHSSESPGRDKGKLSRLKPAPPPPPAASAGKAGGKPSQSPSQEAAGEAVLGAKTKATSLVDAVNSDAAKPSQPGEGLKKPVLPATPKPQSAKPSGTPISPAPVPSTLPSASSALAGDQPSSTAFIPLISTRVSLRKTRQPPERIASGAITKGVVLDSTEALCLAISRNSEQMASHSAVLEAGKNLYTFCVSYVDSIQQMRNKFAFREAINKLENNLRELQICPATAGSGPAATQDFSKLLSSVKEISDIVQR
compound,measurement,setting,value
COC(=O)c1ccc(NCc2cc(O)c3ccccc3c2O)cc1 [Compound 18],Hollow Fiber Assay IP score,"[1]; Table 9, intraperitoneal fibers",4
same,Hollow Fiber Assay SC score,"[1]; Table 9, subcutaneous fibers",0
same,Hollow Fiber Assay Total Ip and SC Score,[1]; Table 9,0
same,IC50,K562 cells; [3],6.83 ± 1.68 µM
same,GI50,[2]; Table 9,8.91 µM
same,Tumor Cell Mean log TGI,[2]; Table 9,−4.62
CC(C)OC(=O)c1ccc(CCC2=CC(=O)C=CC2=O)cc1 [Compound 30],IC50,p210^bcr-abl,25 µM
same,IC50,K562 cells; [4],26 µM
COC(=O)c1ccc(/C=C/C2=CC(=O)C=CC2=O)cc1 [Compound 33],IC50 (p210^ber-abi in vitro phosphorylation),p210^bcr-abl,No Effect
same,IC50,K562 cells; [4],7.5 µM
COC(=O)c1ccc(NCc2cc(OC)ccc2OC)cc1 [COOCH3 / H / CH3],IC50,"K562 cells; Homo sapiens, 144 h, Table 8, mean+S.E., 4 or more experiments, read-out: IC50 (μM) 6 dMTT",41.3 µM
same,Tumor Cell Mean log GI50,[2]; Table 8,−4.40
same,Tumor Cell Mean log TGI,[2]; Table 8,−4.04
CC(C)(C)OC(=O)c1ccc(NCc2cc(O)ccc2O)cc1 [Compound 14],IC50,p210^bcr-abl,10 µM
same,IC50,K562 cells; [4],7 µM
COc1ccc(OC)c(CNc2ccc(C(=O)O)cc2)c1 [COOH / H / CH3],IC50,"K562 cells; Table 8, mean+S.E., 4 or more experiments, read-out: IC50 (μM) 6 dMTT",100 µM
same,Tumor Cell Mean log GI50,[2]; Table 8,−4.0
same,Tumor Cell Mean log TGI,[2]; Table 8,−4.0
CC(C)OC(=O)c1cc(NCc2c(O)ccc(O)c2Br)ccc1Cl [Compound 13],IC50,p210^bcr-abl,10 µM
same,IC50,K562 cells; [4],18 µM
"COC(=O)c1ccc(NCC2=CC(=O)c3ccccc3C2=O)cc1 [Compound 19, 4′-methylbenzoate-1′-N-1,4-methylnaphthoquinone amine]",IC50,K562 cells; [3],9.11 ± 1 µM
same,GI50,[2]; Table 9,13.8 µM
same,Tumor Cell Mean log TGI,[2]; Table 9,−4.41
"O=C(O)c1ccc(/C=C/c2cc(O)ccc2O)cc1O [COOH / 2,5-dihydroxyphenyl / CH═CH / OH]",Tumor Cell Mean log GI50,[2]; Table 10,>−5.03
same,Tumor Cell Mean log TGI,[2]; Table 10,>−5.0
"COC(=O)c1ccc(CCC2=CC(=O)C=CC2=O)cc1 [COOCH3 / 2,5-quinoyl / CH2—CH2 / H]",Hollow Fiber Assay IP score,[1]; Table 10,6
same,Hollow Fiber Assay SC score,[1]; Table 10,4
same,Hollow Fiber Assay Total Ip and SC Score,[1]; Table 10,10
same,IC50,"K562 cells; Table 10, mean ± S.E., 4 or more experiments, read-out: IC50 (μM) 6dMTT",5.65 ± 0.8 µM
same,Tumor Cell Mean log GI50,[2]; Table 10,−5.00
same,Tumor Cell Mean log TGI,[2]; Table 10,−4.65
CC(C)OC(=O)c1ccc(CCC2=CC(=O)C(Br)=CC2=O)cc1 [Compound 32],IC50 (p210^ber-abi in vitro phosphorylation),p210^bcr-abl,No Effect
same,IC50,K562 cells; [4],10 µM
"O=C1C=CC(=O)C(CNc2ccc(C(=O)OC34CC5CC(CC(C5)C3)C4)cc2)=C1 [Compound 22, 4′-adamantylbenzoate-1′-N-p-quinone-2-methyl amine]",IC50,K562 cells; [3],32 ± 0.5 µM
same,GI50,[2]; Table 9,4.79 µM
same,Tumor Cell Mean log TGI,[2]; Table 9,−4.72
